Results as given in patent publication US20240197756A1, “METHODS OF TREATMENT WITH NEUROACTIVE STEROIDS” (priority 2021, published 2024).

How the values were obtained:
[1] = system: GABAA receptors in the brain; conditions: cited from earlier work; for power of the alpha-band frequency (qEEG): comparator GABAA PAMs, previously shown (FIG. 7); for beta-band frequency (qEEG): comparator marketed GABAA PAMs, previously shown
harmaline-induced tremor = experiment: rHIT model, coadministration of Compound 1 and Compound 2; assay type: in vivo, rat; conditions: Compound 2 p.o. 60 min before harmaline
Description: Rat Harmaline Induced Tremor (rHIT): The rHIT model was used to assess the impact of the combination of Compound 1 and Compound 2 on reducing the symptoms of tremor. Male SD rats (SLAC, Shanghai, China) weighing about 250 g at the time of testing were housed in a 12:12 light-dark cycle room throughout the study, with the lights on from 5 a.m. to 5 p.m, and fed ad libitum. […]
The rHIT methods described in Example 5 were used. […] After the 20-minute baseline recording, rats were dosed with harmaline and the post-harmaline effect was measured for 20 minutes. […]

[2] = Khodadoustan et al. (2017); cited from earlier work
[3] = system: extrasynaptic form of GABAA receptors; conditions: cited from earlier work

Compound: O=C1Nc2ccc(Cl)cc2C(c2ccccc2Cl)=NC1O (centres unmarked) [lorazepam]
- power of the alpha-band frequency (qEEG) [1]: decrease
- beta-band frequency (qEEG) [1]: Increases

Compound: CC(C)(C)NC(=O)CN1CCC(CNC(=O)c2cc(F)cc(Cl)c2)CC1 [Compound 2, N-((1-(2-(tert-butylamino)-2-oxoethyl)piperidine-4-yl)methyl)-3chloro-5-fluorobenzamide]
- effect on tremor (harmaline-induced tremor): tremor-reducing effects

Compound: CCOC(=O)C1=C(COCCN)NC(C)=C(C(=O)OC)C1c1ccccc1Cl (centres unmarked) [amlodipine besylate]
- Cmax, evening administration compared to morning dosing [2]: increased
- Tmax, evening administration compared to morning dosing [2]: reduced

Compound: CC(=O)[C@H]1CC[C@H]2[C@@H]3CC[C@H]4C[C@H](O)CC[C@]4(C)[C@H]3CC[C@]12C [allopregnanolone]
- power of the alpha-band frequency (qEEG) [1]: decrease
- beta-band frequency (qEEG) [1]: Increases
- potency at synaptic and extrasynaptic receptors [3]: equipotent
